Target: T1, NUDT15 (Homo sapiens, UniProt Q9NV35)
T1 sequence (Q9NV35 1-164): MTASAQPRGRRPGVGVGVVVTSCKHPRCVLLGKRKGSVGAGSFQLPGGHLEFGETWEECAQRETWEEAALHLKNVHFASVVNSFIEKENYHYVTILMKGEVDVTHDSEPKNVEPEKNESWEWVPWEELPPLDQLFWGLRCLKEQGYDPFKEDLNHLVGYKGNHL
Assay: X-ray crystal structure
Format: biochemical

Ki: 0.0102 ± 0.0009 µM
SMILES: C[C@@H]1CN(C(=O)c2ccc3c(ccn3C)c2)CCN1S(=O)(=O)c1ccc2[nH]c(=O)oc2c1 [compound 6, (R)-6-((2-methyl-4-(1-methyl-1H-indole-5-carbonyl)piperazin-1-yl)sulfonyl)benzo[d]oxazol-2(3H)-one]

From publication PMC8079283 (The Journal of Biological Chemistry, 2021)
